Test results taken from the METLIN SMRT retention time set (Domingo-Almenara et al. 2019).

Test: gradient 5% acetonitrile 3 min, to 50% in 2 min, to 85% in 15 min, held 3 min, 100 µL/min
Conditions: column: Zorbax Extend-C18 2.1 x 50 mm; eluents: water / acetonitrile, 0.1% formic acid
Summary of the method: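 In both positive and negative ionization mode, a quadrupole time-of-flight mass spectrometer coupled to HPLC analyzed pure standards run in mixtures of ~100 molecules. The Zorbax Extend-C18 column (2.1 × 50 mm, 1.8 μm) was operated at 100 μL/min with water and acetonitrile, each containing 0.1% formic acid. The dead volume was 40 μL and the dwell volume 900 μL. Retention time came from adduct peaks that were computationally picked and individually inspected by hand.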

Row | SMILES | RP-LC retention time
1 | Cc1nc(-c2cn(C(C)C)c3ncccc23)sc1C(=O)Nc1ccc2c(c1)OCCO2 | 1010 s
2 | Cn1nc2ccc(S(=O)(=O)N3CCOCC3)cn2c1=O | 611 s
3 | CCCNC(=O)C1CCN(c2ccc(SCC(=O)Nc3ccc(F)cc3F)nn2)CC1 | 670 s
4 | CCOc1ccc(S(=O)(=O)N2CCCC(C(=O)NCC3CCCO3)C2)cc1 (configuration not stated) | 788 s
5 | Cc1ccc2nc(NC(=O)C3CCN(S(=O)(=O)c4ccc5[nH]c(=O)ccc5c4)CC3)sc2c1 | 814 s
6 | CCCCn1c(=O)c2ccccc2n(Cc2nc(-c3ccc(Br)cc3)no2)c1=O | 1300 s
7 | CN1CCCC1c1nc(C2CN(C(=O)c3cccn3C)C2)no1 (configuration not stated) | 548 s
8 | CN(C)CCNC(=O)c1cc(-c2ccccc2)nc2ccccc12 | 620 s
9 | Cc1ccc(CNc2ccc3[nH]c(=O)[nH]c3c2)cc1 | 579 s
10 | O=C(NCc1ccc(F)cc1Cl)c1csc(C(=O)N2CCCC2)n1 | 864 s
11 | O=C(CSc1nc(N2CCCCC2)nc2ccccc12)Nc1ccccc1 | 702 s
12 | CC(C)(C)C(=O)Nc1ccc(-c2nc(-c3ccccc3)co2)cc1 | 1110 s
13 | Cc1nc2cccnc2n1CCN1CCN(C(=O)Nc2ccccc2Cl)CC1 | 584 s
14 | CC(C)NC(=O)c1ccc2c(c1)ncn2CCNC(=O)Nc1ccc(Br)cc1F | 651 s
15 | COc1cc(=O)n2c(c1C(=O)Nc1ccc3c(c1)OCCO3)CCCC2 | 647 s
16 | O=C(C1=CN(c2ccccc2F)c2cc(F)ccc2S1(=O)=O)N1CCCCC1 | 848 s
17 | COCc1cc(=O)n(Cc2ccccc2)c(N2CCCC2)n1 | 777 s
18 | COc1ccc(-c2nnc(COc3cccc(NC(=O)c4ccoc4)c3)o2)cc1 | 866 s
19 | CCc1ccc(NC(=O)C2CC(=O)N(c3n[nH]c4cccc(F)c34)C2)cc1 (configuration not stated) | 847 s
20 | Cc1ccc(CNC(=O)c2ccc(-c3cc(N4CCCC4)ncn3)cc2)o1 | 654 s
21 | CCN1CCN(c2cc(-c3nc(-c4ccccc4)no3)c3ccccc3n2)CC1 | 822 s
22 | CCC1CCCCN1C(=O)c1cnc2nc(C)ccc2c1Nc1ccc(OC)cc1C (configuration not stated) | 692 s

Row | SMILES | RP-LC retention time
23 | Cc1ccc2c(c1)N(S(C)(=O)=O)CCC(C(=O)NC1CCCCC1)O2 (configuration not stated) | 914 s
24 | COc1cc(Cl)c(C)cc1NC(=O)c1c(C)cc(C)cc1C | 1150 s
25 | Cc1cc(C)n2nc(SCC(=O)Nc3ccc(Br)cc3F)nc2n1 | 850 s
26 | Cc1noc([C@@H]2CN(Cc3cn[nH]c3-c3ccccc3)C[C@H]2CO)n1 | 582 s
27 | Cn1nc(C(=O)NCc2ccc3c(c2)OCO3)c2c1CCN(C(=O)COc1ccc(F)cc1)C2 | 765 s
28 | COC(=O)c1cc2c(=O)n(-c3cccc(Cl)c3Cl)ccc2nc1C | 915 s
29 | O=C(CCc1nc(-c2ccc(N3CCCCC3)cc2)no1)N1CCC2(CC1)OCCO2 | 798 s
30 | CCCCNC(=O)CN1C(=O)CC(c2cccs2)=Nc2ccccc21 | 835 s
31 | CCOc1ccccc1NC(=O)NCC(c1cccnc1)c1cn(C)c2ccccc12 (configuration not stated) | 753 s
32 | COC(=O)c1c(C)[nH]c(C(=O)N2CCC(CC(=O)NCc3ccccc3C)CC2)c1C | 749 s
33 | CCCN(Cc1ccc(F)cc1)Cc1cc(=O)n2cc(Cl)ccc2n1 | 659 s
34 | FC1(F)CN[C@H](c2nc(-c3ccccc3)no2)C1 | 794 s
35 | CC1(C(=O)NCc2ccc(F)cc2)Cn2cnc(C(=O)NCCc3ccccc3)c2C(=O)N1C1CC1 (configuration not stated) | 772 s
36 | O=C(NC1CCCCC1)c1nc(-c2cn(-c3ccc(F)cc3)nn2)no1 | 938 s
37 | Cc1noc(CNC(=O)C2CCN(C(=O)c3cc(-c4ccccc4)n[nH]3)CC2)n1 | 610 s
38 | Cc1cnc(C(=O)N2CCC(F)(F)C(COCC3CC3)C2)cn1 (configuration not stated) | 794 s
39 | Cc1noc(-c2cc(=O)n(CC(=O)NCc3cccs3)c3ccccc23)n1 | 795 s
40 | COc1ccc(NC(=O)c2cc(C(C)C)n3nccc3n2)cc1Cl | 1130 s
41 | O=C(c1ccc(-c2c(-c3ccc(F)cc3)ncn2C2CCCC2)o1)N1CCN(c2ncccn2)CC1 | 727 s
42 | COc1cccc(NC(=O)c2sc(-c3cn(C)c4ncccc34)nc2C)c1 | 927 s
43 | COC(=O)C(C)NC(=O)N1CCCN(C2=NS(=O)(=O)C(c3ccc(C)cc3)=C2C)CC1 (configuration not stated) | 736 s
44 | COc1ccc2nc3oc(C(=O)NCCN4CCCCC4C)cc3cc2c1 (configuration not stated) | 633 s

Row | SMILES | RP-LC retention time
45 | CCCNC(=O)CC1CCN(C(=O)c2[nH]c(C)c(C(=O)OC)c2C)CC1 | 657 s
46 | O=C(NCc1ccccc1)c1nnc(-c2ccc(S(=O)(=O)N3CCOCC3)cc2)o1 | 816 s
47 | O=C(CCc1nnc2ccc(N3CCOCC3)nn12)N1CCN(c2ccccn2)CC1 | 566 s
48 | COc1ccc(C(=O)CC2(O)C(=O)Nc3c(C)cccc32)cc1OC (configuration not stated) | 688 s
49 | CCN1CCCC1CN(CC(=O)N1CCNCC1)S(=O)(=O)c1ccc(CC(C)C)cc1 (configuration not stated) | 610 s
50 | O=C(c1ccc2c(c1)OCO2)N1CCC2(CC1)NC(=O)N(Cc1cccc(Cl)c1)C2=O | 840 s
51 | CCC1CN2C=Nc3oc(C)c(C(=O)NCCc4ccc(OC)c(OC)c4)c3C2=N1 (configuration not stated) | 645 s
52 | c1cc(-c2noc(-c3ccoc3)n2)cc(-c2ccn[nH]2)c1 | 839 s
53 | CC(C)[C@@H](CN1CC[C@@](C)(c2cccc(O)c2)[C@@H](C)C1)NC(=O)[C@H]1Cc2ccc(O)cc2CN1 | 555 s
54 | Cc1ccccc1Nc1c(-c2cccc(Br)c2)nc2c(C)cccn12 | 849 s
55 | COc1ccc(N2CCN(c3cc(C(=O)O)c4cc(NS(C)(=O)=O)ccc4n3)CC2)cc1 | 609 s
56 | Cc1ccccc1CNC(=O)c1ccc(CN2CCN(Cc3ccccc3)C(=O)C2=O)cc1 | 797 s
57 | CC(C)CC(NC(=O)c1cccs1)C(=O)Nc1nc2ccccc2[nH]1 (configuration not stated) | 703 s
58 | O=C(NCC1CCS(=O)(=O)C1)c1cccnc1 (configuration not stated) | 565 s
59 | CCn1c(N2CCCC(C(=O)NCc3ccco3)C2)cc(=O)n(C)c1=O (configuration not stated) | 731 s
60 | COC[C@@H]1CN(S(=O)(=O)c2ccc(F)cc2)C[C@H]1c1ccccn1 | 745 s
61 | Cc1ccc(N2C(=O)N(Cc3cccc(F)c3)S(=O)(=O)c3cccnc32)cc1 | 1080 s
62 | CCc1ccc(NC(=O)Cn2c(=O)cc(-c3nc(C)no3)c3ccccc32)cc1 | 930 s
63 | COCCNC(=O)NCCC1CCN(S(=O)(=O)c2ccc(C)cc2)CC1 | 686 s
64 | COC(=O)c1ccc(Nc2c(C(=O)N3CCCC3)cnc3nc(C)ccc23)cc1 | 598 s
65 | Cc1sc(NC(=O)C(F)(F)F)nc1-c1ccc2c(c1)NC(=O)C(C)O2 (configuration not stated) | 840 s
66 | c1ccc(-c2nc(CSc3cc(N4CCOCC4)ncn3)cs2)cc1 | 817 s

Row | SMILES | RP-LC retention time
67 | CC(C(=O)NCCCN(C)c1ccccc1)n1c(=O)c(C(F)(F)F)nc2ccccc21 (configuration not stated) | 881 s
68 | O=C(c1cccs1)N1CCCCC1c1nncn1-c1ccccc1 (configuration not stated) | 705 s
69 | Cc1cc2nn(CC(=O)Nc3ccc(F)cc3Cl)c(=O)n2c(-c2ccccc2)n1 | 761 s
70 | CCCCN1CC(=O)N(c2cccc(Cl)c2)[C@@H]2CS(=O)(=O)C[C@@H]21 | 790 s
71 | CCN1C[C@]2(COC)CC[C@H](OC)[C@]34C5C[C@@H]6[C@@H](OC)C[C@@]7(OCOC7(C13)[C@@H](O)C24)C5[C@H]6OC (some centres not stated) | 614 s
72 | CN1CCc2nc(C(=O)N[C@@H]3C[C@@H](C(=O)N(C)C)CC[C@@H]3NC(=O)C(=O)Nc3ccc(Cl)cn3)sc2C1 | 652 s
73 | COc1ccc(C(=O)N2CC(n3cc(COCC4CC4)nn3)C2)c(OC)c1 | 705 s
74 | O=C1NCCCCCCN(C(=O)C2CCCCC2)[C@H]2C[C@H](C(=O)N3CCc4ccccc4C3)C[C@@H]12 | 924 s
75 | Cc1cc(NC(=O)CSc2[nH]c(=O)ncc2C)on1 | 567 s
76 | Cn1cc(CCN2CCC(C(=O)N3CCN(c4ccccc4)CC3)CC2)c2cccnc21 | 617 s
77 | COc1ccc(CNc2ccc(-c3nc(-c4ccc(F)cc4)no3)cn2)cc1 | 1220 s
78 | Cc1noc(C)c1CN1CCC(NC(=O)Cc2ccccc2Cl)C1 (configuration not stated) | 613 s
79 | O=C(Cn1c(=O)c(CCC(=O)NC2CC2)nc2ccccc21)NCc1ccccc1 | 693 s
80 | O=C1C2N=NN(c3ccccc3)C2C(=O)N1c1ccccc1 (configuration not stated) | 907 s
81 | COC(=O)c1ccccc1NC(=O)CSc1nccc(N2CCN(c3cccc(OC)c3)CC2)n1 | 695 s
82 | Clc1ccc(-c2nnc(-c3cccnc3N3CCN(c4ccccn4)CC3)o2)cc1 | 710 s
83 | CC(=O)N1CCc2cc(N3CC(C(=O)Nc4cccc(Cl)c4F)CC3=O)ccc21 (configuration not stated) | 742 s
84 | O=C(c1nc(Cn2nc(-c3ccc(F)cc3)ccc2=O)no1)N1CCC2(CC1)OCCO2 | 783 s
85 | COc1ccc(C(=O)N2CCn3c(nnc3C(C)C)C2)c(OC)n1 | 588 s
86 | COC(=O)c1ncn2c1C(=O)N(Cc1ccccc1F)C(C)(C(=O)NC1CCCCCC1)C2 (configuration not stated) | 816 s
87 | COC(=O)c1ccc(-c2nc3cnccn3c2Nc2cccc(OC)c2)cc1 | 846 s
